Test results published in patent publication US11331304B2, “YAP1 inhibitors and methods” (The Jackson Laboratory, priority 2016, dated 2022).

Experiment: Solubility of verteporfin derivative compounds in water and buffer (pH = 2)
Assay type: physicochemical
Conditions: for Buffer (pH = 2) result, fraction dissolved / Buffer (pH = 2) result: phosphate buffer pH = 2; for Water result: at the amount per volume in mg/mL

Row | Buffer (pH = 2) result, fraction dissolved | Water result | Buffer (pH = 2) result | Compound
1 | ~20% | insoluble |  | C=Cc1c(C)c2cc3nc(cc4[nH]c(cc5nc(cc1[nH]2)C(C)=C5CCC(=O)N[C@@H](CC(=O)O)C(=O)O)c(CCC(=O)OC)c4C)[C@@]1(C)C3=CC=C(C(=O)OC)[C@H]1C(=O)OC [Compound T1, (2S)-2-[3-[(23 S,24R)-14-ethenyl-5-(3-methoxy-3-oxopropyl)-22,23-bis(methoxycarbonyl)-4,10,15,24-tetramethyl-25,26,27,28-tetraazahexacyclo[16.6.1.13,6.18,11.113,16.019,24]octacosa-1,3,5,7,9,11(27),12,14,16,18(25), 19,21-dodecaen-9-yl]propanoylamino]butanedioic acid]
2 | ~80% | insoluble |  | C=Cc1c(C)c2cc3nc(cc4[nH]c(cc5nc(cc1[nH]2)C(C)=C5CCC(=O)NCCC(=O)N[C@@H](CC(=O)O)C(=O)O)c(CCC(=O)OC)c4C)[C@@]1(C)C3=CC=C(C(=O)OC)[C@H]1C(=O)OC [Compound T4, (2S)-2-[3-[3-[(23 S,24R)-14-ethenyl-5-(3-methoxy-3-oxopropyl)-22,23-bis(methoxycarbonyl)-4,10,15,24-tetramethyl-25,26,27,28-tetraazahexacyclo[16.6.1.13,6.18,11.113,16.019,24]octacosa-1,3,5,7,9,11(27),12,14,16,18(25), 19,21-dodecaen-9-yl]propanoylamino]propanoylamino]butanedioic acid]
3 |  | insoluble | insoluble | C=Cc1c(C)c2cc3nc(cc4[nH]c(cc5nc(cc1[nH]2)C(C)=C5CCC(=O)OCCOCCOCCOC)c(CCC(=O)OC)c4C)[C@@]1(C)C3=CC=C(C(=O)OC)[C@H]1C(=O)OC [Compound T8, Methyl 3-[(23S,24R)-14-ethenyl-9-[3-[2-[2-(2-methoxyethoxy)ethoxy]ethoxy]-3-oxo-propyl]-22,23-bis(methoxycarbonyl)-4,10,15,24-tetramethyl-25,26,27,28-tetraazahexacyclo[16.6.1.13,6.18,11.113,16.019,24]octacosa-1,3,5,7,9,11(27),12,14,16,18(25), 19,21-dodecaen-5-yl]propanoate]
4 | ~70% | insoluble |  | C=Cc1c(C)c2cc3nc(cc4[nH]c(cc5nc(cc1[nH]2)C(C)=C5CCC(=O)NCCN(C)C)c(CCC(=O)OC)c4C)[C@@]1(C)C3=CC=C(C(=O)OC)[C@H]1C(=O)OC [Compound T11, Methyl 3-[(23 S,24R)-14-ethenyl-9-[3-[2-(dimethylamino)ethylamino]-3-oxo-propyl]-22,23-bis(methoxycarbonyl)-4,10,15,24-tetramethyl-25,26,27,28-tetraazahexacyclo[16.6.1.13,6.18,11.113,16.019,24]octacosa-1,3,5,7,9,11(27), 12,14,16,18(25), 19,21-dodecaen-5-yl]propanoate]
5 |  | insoluble | insoluble | C=Cc1c(C)c2cc3nc(cc4[nH]c(cc5nc(cc1[nH]2)C(C)=C5CCC(=O)N[C@@H](CC(=O)O)C(=O)O)c(CCC(=O)N[C@@H](CC(=O)O)C(=O)O)c4C)[C@@]1(C)C3=CC=C(C(=O)OC)[C@H]1C(=O)OC [Compound T3, (2S)-2-[3-[(23 S,24R)-14-ethenyl-5-[3-[[(1 S)-1,2-dicarboxyethyl]amino]-3-oxo-propyl]-22,23-bis(methoxycarbonyl)-4,10,15,24-tetramethyl-25,26,27,28-tetraazahexacyclo[16.6.1.13,6.18,11.113,16.019,24]octacosa-1,3,5,7,9,11(27),12,14,16,18(25), 19,21-dodecaen-9-yl]propanoylamino]butanedioic acid]
